pIC50: −log10 of the molar value.
Columns and labels:
[1] = test system: Osteoclast-like; assay: In vitro growth factor-dependent proliferation against murine bone marrow cell was determined; type: functional, cell-based, Mus musculus
[2] = test system: CTLL; assay: In vitro interleukin-2-dependent proliferation of the murine cytotoxlc T cell line (CTLL) was determined; type: functional, cell-based, Mus musculus
[3] = test system: Jurkat; assay: In vitro growth factor-independent proliferation against human leukemia T cell line jurkat was determined; type: functional, cell-based
[4] = test system: L1210; assay: In vitro growth factor-independent proliferation against murine leukemia L1210 was determined; type: functional, cell-based, Mus musculus
[5] = test system: Lymphoma cell line; assay: Antiproliferative effect against human lymphoma cells was determined; (0.012 to 0.12 nM); type: functional, cell-based
[6] = test system: Panel leukemia (Carcinoma cell lines); assay: Antiproliferative effect against continuous human leukemia cell lines and peripheral blood cells from patients with acute myeloid leukemia was determined; (0.1 to 1 nM); type: functional, cell-based

SMILES	pIC50 ([1]; Mus musculus, Osteoclast-like)	pIC50 ([2]; Mus musculus, CTLL)	pIC50 [3]	pIC50 ([4]; Mus musculus, L1210)	pIC50 ([1]; osteoclast-like)	pIC50 ([2]; ctll)	pIC50 ([4]; l1210)	pIC50 [5]	pIC50 [6]
COC1=CC(=O)N(C(=O)[C@H](OC(=O)[C@@H]2CCCN2C(=O)[C@@H]2CCCN2C(=O)[C@H](C(C)C)N(C)C(=O)[C@@H](NC(=O)[C@H](C(C)C)N(C)C)C(C)C)C(C)C)[C@@H]1Cc1ccccc1	6.92	6.40	6.15	8.75	–	–	–	–	–
COC1=CC(=O)N(C(=O)[C@H](OC(=O)[C@@H]2CCCN2C(=O)[C@@H]2CCCN2C(=O)[C@H](C(C)C)N(C)C(=O)[C@@H](NC(=O)[C@H](C(C)C)N(C)C)C(C)C)C(C)C)[C@H]1Cc1ccccc1 (stereo in doubt; form 1)	7.40	8.10	8.00	9.52	–	–	–	–	–
COC1=CC(=O)N(C(=O)[C@H](OC(=O)[C@@H]2CCCN2C(=O)[C@@H]2CCCN2C(=O)[C@H](C(C)C)N(C)C(=O)[C@@H](NC(=O)[C@H](C(C)C)N(C)C)C(C)C)C(C)C)[C@H]1Cc1ccccc1 (stereo in doubt; form 2)	–	–	–	–	7.30	8.00	9.51	–	–
COC1=CC(=O)N(C(=O)[C@@H](OC(=O)[C@@H]2CCCN2C(=O)[C@@H]2CCCN2C(=O)[C@H](C(C)C)N(C)C(=O)[C@@H](NC(=O)[C@H](C(C)C)N(C)C)C(C)C)C(C)C)[C@H]1Cc1ccccc1 [DOLASTATIN 15]	7.77	8.52	8.30	9.82	–	–	–	10.92	10.00
